Measured values taken from PubChem BioAssay (NCI).
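48-hour exposure; five concentrations; linearly interpolated endpoints. At the GI50, growth is halved. The concentration for full growth arrest is given as TGI.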

Legend:
Assay in all cases: growth of human tumour cells (NCI), 48 h
[1] = test system: IGROV1 ovarian
[2] = test system: U251 CNS
[3] = test system: A549 NSCLC
[4] = test system: HT29 colon
[5] = test system: NCI-H226 lung
[6] = test system: MALME-3M melanoma
[7] = test system: T-47D breast
[8] = test system: UACC-62 melanoma
[9] = test system: PC-3 prostate
[10] = test system: OVCAR-8 ovarian
[11] = test system: MOLT-4 leukemia
[12] = test system: NCI-H460 lung
[13] = test system: SK-MEL-2 melanoma
[14] = test system: MDA-MB-435
[15] = test system: TK-10 renal
[16] = test system: MCF7 breast
[17] = test system: M14 melanoma
[18] = test system: 786-0 renal
[19] = test system: CCRF-CEM leukemia
[20] = test system: RPMI-8226 leukemia
[21] = test system: SK-MEL-28 melanoma
[22] = test system: UO-31 renal
[23] = test system: NCI/ADR-RES ovarian
[24] = test system: BT-549 breast
[25] = test system: UACC-257 melanoma
[26] = test system: RXF 393 renal
[27] = test system: HCT-15 colon
[28] = test system: SK-MEL-5 melanoma
[29] = test system: HS 578T breast
[30] = test system: OVCAR-3 ovarian
[31] = test system: HL-60(TB) leukemia
[32] = test system: NCI-H23 lung
[33] = test system: ACHN renal
[34] = test system: SF-268 CNS
[35] = test system: K-562 leukemia
[36] = test system: HOP-92 NSCLC
[37] = test system: SN12C renal
[38] = test system: SW-620 colon
[39] = test system: HOP-62 NSCLC
[40] = test system: OVCAR-4 ovarian
[41] = test system: COLO 205 colon
[42] = test system: SK-OV-3 ovarian
[43] = test system: SNB-19 CNS
[44] = test system: HCC-2998 colon
[45] = test system: SNB-75 CNS
[46] = test system: A498 renal
[47] = test system: NCI-H522 lung
[48] = test system: OVCAR-5 ovarian
[49] = test system: LOX IMVI melanoma
[50] = test system: CAKI-1 renal
[51] = test system: SR leukemia
[52] = test system: DU-145 prostate
[53] = test system: KM12 colon
[54] = test system: HCT-116 colon
[55] = test system: EKVX NSCLC
[56] = test system: SF-539 CNS
[57] = test system: SF-295 CNS
[58] = test system: MDA-MB-231 breast

`O=C(Nc1cccc(-c2nc(-c3ccc(NC(=O)c4cccnc4)cc3Cl)no2)c1)Nc1ccc(NC(=O)C2CC2)c(C(F)(F)F)c1` gave a GI50 [1] of 258 nM, a TGI [1] of 830 nM and a GI50 [2] of 290 nM. The TGI [2] was 1020 nM, the GI50 [3] was 429 nM and the TGI [3] was 4760 nM. For the same compound, the GI50 [4] was 336 nM, the TGI [4] was 1430 nM and the GI50 [5] was 562 nM. It also gave a TGI [5] of 1960 nM, a GI50 [6] of 240 nM and a TGI [6] of 808 nM. It also gave a GI50 [7] of 535 nM, a TGI [7] of 2400 nM and a GI50 [8] of 317 nM. The TGI [8] was 1570 nM, the GI50 [9] was 226 nM and the TGI [9] was 790 nM. It also gave a GI50 [10] of 449 nM, a TGI [10] of 3100 nM and a GI50 [11] of 288 nM. It also gave a TGI [11] of 1020 nM, a GI50 [12] of 343 nM and a TGI [12] of 1130 nM. It also gave a GI50 [13] of 1140 nM, a TGI [13] of 2980 nM and a GI50 [14] of 126 nM. The TGI [14] was 381 nM, the GI50 [15] was 1920 nM and the TGI [15] was 5460 nM. For the same compound, the GI50 [16] was 228 nM, the TGI [16] was 1220 nM and the GI50 [17] was 307 nM. It also gave a TGI [17] of 1280 nM, a GI50 [18] of 994 nM and a TGI [18] of 3110 nM. The GI50 [19] was 270 nM, the TGI [19] was 1900 nM and the GI50 [20] was 303 nM. It also gave a TGI [20] of 1100 nM, a GI50 [21] of 559 nM and a TGI [21] of 1710 nM. For the same compound, the GI50 [22] was 1610 nM, the TGI [22] was 5450 nM and the GI50 [23] was 22200 nM. It also gave a TGI [23] greater than 100000 nM, a GI50 [24] of 1070 nM and a TGI [24] of 3020 nM. The GI50 [25] was 1330 nM, the TGI [25] was 3490 nM and the GI50 [26] was 247 nM. For the same compound, the TGI [26] was 741 nM, the GI50 [27] was 784 nM and the TGI [27] was 5620 nM. The GI50 [28] was 381 nM, the TGI [28] was 1400 nM and the GI50 [29] was 324 nM. For the same compound, the TGI [29] was 1290 nM, the GI50 [30] was 315 nM and the TGI [30] was 1100 nM. It also gave a GI50 [31] of 259 nM, a TGI [31] of 997 nM and a GI50 [32] of 411 nM. It also gave a TGI [32] of 1570 nM, a GI50 [33] of 2070 nM and a TGI [33] of 13200 nM. For the same compound, the GI50 [34] was 1070 nM, the TGI [34] was 4830 nM and the GI50 [35] was 156 nM. It also gave a TGI [35] of 10700 nM, a GI50 [36] of 522 nM and a TGI [36] of 1330 nM. For the same compound, the GI50 [37] was 415 nM, the TGI [37] was 1660 nM and the GI50 [38] was 345 nM. The TGI [38] was 1510 nM, the GI50 [39] was 361 nM and the TGI [39] was 1800 nM. It also gave a GI50 [40] of 565 nM, a TGI [40] of 1830 nM and a GI50 [41] of 380 nM. For the same compound, the TGI [41] was 1610 nM, the GI50 [42] was 1760 nM and the TGI [42] was 3890 nM. The GI50 [43] was 381 nM, the TGI [43] was 1900 nM and the GI50 [44] was 689 nM. It also gave a TGI [44] of 2060 nM, a GI50 [45] of 224 nM and a TGI [45] of 806 nM. It also gave a GI50 [46] of 161 nM, a TGI [46] of 1890 nM and a GI50 [47] of 349 nM. For the same compound, the TGI [47] was 1760 nM, the GI50 [48] was 446 nM and the TGI [48] was 1710 nM. The GI50 [49] was 174 nM, the TGI [49] was 388 nM and the GI50 [50] was 437 nM. For the same compound, the TGI [50] was 1800 nM, the GI50 [51] was 96.3 nM and the TGI [51] was 962 nM. For the same compound, the GI50 [52] was 435 nM, the TGI [52] was 4210 nM and the GI50 [53] was 376 nM. It also gave a TGI [53] of 1750 nM, a GI50 [54] of 303 nM and a TGI [54] of 1280 nM. It also gave a GI50 [55] of 997 nM, a TGI [55] of 5110 nM and a GI50 [56] of 226 nM. The TGI [56] was 655 nM, the GI50 [57] was 271 nM and the TGI [57] was 752 nM. For the same compound, the GI50 [58] was 323 nM and the TGI [58] was 1260 nM.
